Source: patent US10233188B2, “CDK2/4/6 inhibitors” (priority 2016, dated 2019)

Columns and labels:
CDK6/Cyclin D1 = CDK6/Cyclin D1 (Homo sapiens (Human), UniProt Q00534); assay: biochemical; details: CDK6_Ki (nM), non-phosphorylated CDK6/Cyclin D1, 2 mM ATP, Morrison fit
CDK2/Cyclin E1 = CDK2/Cyclin E1 (Homo sapiens (Human), UniProt P24941); assay: biochemical; details: CDK2_Ki (nM), phosphorylated CDK2/Cyclin E1, 150 μM ATP, Morrison tight-binding fit
Description: The assay was initiated with the addition of ATP, following a fifteen minutes pre-incubation of enzyme and inhibitor at room temperature in the reaction mixture. The reaction was stopped after 45 minutes at room temperature by the addition of 50 μL of 80 mM EDTA, pH 7.5.

Sequence of CDK6/Cyclin D1 (Q00534 whole entry): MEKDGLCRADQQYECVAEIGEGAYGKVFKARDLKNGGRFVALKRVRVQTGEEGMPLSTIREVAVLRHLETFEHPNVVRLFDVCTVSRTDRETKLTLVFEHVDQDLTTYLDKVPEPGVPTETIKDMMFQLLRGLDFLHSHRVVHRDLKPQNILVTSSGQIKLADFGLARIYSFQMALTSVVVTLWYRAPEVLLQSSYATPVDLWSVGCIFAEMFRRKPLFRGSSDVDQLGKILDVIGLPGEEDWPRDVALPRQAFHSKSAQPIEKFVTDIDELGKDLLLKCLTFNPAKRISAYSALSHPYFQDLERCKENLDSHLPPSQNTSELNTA
Sequence of CDK6/Cyclin D1 (P24385 whole entry partner): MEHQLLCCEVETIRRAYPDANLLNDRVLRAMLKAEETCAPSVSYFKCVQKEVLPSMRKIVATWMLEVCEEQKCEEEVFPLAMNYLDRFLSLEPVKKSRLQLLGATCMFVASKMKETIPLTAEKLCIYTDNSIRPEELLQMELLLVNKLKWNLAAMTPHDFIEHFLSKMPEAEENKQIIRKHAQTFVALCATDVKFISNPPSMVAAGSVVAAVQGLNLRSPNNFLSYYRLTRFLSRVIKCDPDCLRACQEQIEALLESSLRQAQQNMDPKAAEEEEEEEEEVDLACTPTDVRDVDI

SMILES | Ki (CDK6/Cyclin D1) | Ki (CDK2/Cyclin E1)
CS(=O)(=O)N1CCC(Nc2ncc3cc(CC(F)F)c(=O)n([C@@H]4CCC[C@@H](O)C4)c3n2)CC1 [Example 140, 6-(2,2-difluoroethyl)-8-[(1R,3R)-3-hydroxycyclohexyl]-2-{[1-(methylsulfonyl)piperidin-4-yl]amino}pyrido[2,3-d]pyrimidin-7(8H)-one] | 0.63 nM | 1.97 nM
CC(C)(O)CS(=O)(=O)N1CCC(Nc2ncc3ccc(=O)n([C@@H]4CCC[C@@]4(C)O)c3n2)CC1 [Example 189, 8-[(1R,2R)-2-hydroxy-2-methylcyclopentyl]-2-({1-[(2-hydroxy-2-methylpropyl)sulfonyl]piperidin-4-yl}amino)pyrido[2,3-d]pyrimidin-7(8H)-one] | 1.98 nM | 1.2 nM
C[C@]1(O)CCC[C@@H]1n1c(=O)ccc2cnc(NC3CCN(S(=O)(=O)CC4CC4)CC3)nc21 (single isomer, unassigned) [Example 91, (+)-2-({1-[(cyclopropylmethyl)sulfonyl]piperidin-4-yl}amino)-8-[(1R*,2R*)-2-hydroxy-2-methylcyclopentyl]pyrido[2,3-d]pyrimidin-7(8H)-one] | 2.72 nM | 3.01 nM
CS(=O)(=O)N1CCC(Nc2ncc3cc(CC(N)=O)c(=O)n([C@H]4CCC[C@H](O)C4)c3n2)CC1 (single isomer, unassigned) [Example 214, (−)-2-(8-[(1R*,2R*)-3-hydroxycyclohexyl]-2-{[1-(methylsulfonyl)piperidin-4-yl]amino}-7-oxo-7,8-dihydropyrido[2,3-d]pyrimidin-6-yl)acetamide] | 83.3 nM | 27.8 nM
C#CCCS(=O)(=O)N1CCC(Nc2ncc3cc(N)c(=O)n(C4CCCC4)c3n2)CC1 [Example 137, 6-amino-2-{[1-(but-3-yn-1-ylsulfonyl)piperidin-4-yl]amino}-8-cyclopentylpyrido[2,3-d]pyrimidin-7(8H)-one] | 6.3 nM | 4.08 nM
C[C@@]1(O)CCC[C@H]1n1c(=O)c(Cl)cc2cnc(N[C@@H]3CCN(S(C)(=O)=O)C[C@@H]3F)nc21 (single isomer, unassigned) [Example 192, (+)-6-chloro-2-{[(3R*,4S*)-3-fluoro-1-(methylsulfonyl)piperidin-4-yl]amino}-8-[(1R,2R)-2-hydroxy-2-methylcyclopentyl]pyrido[2,3-d]pyrimidin-7(8H)-one] | 10.1 nM | 20.9 nM
C[C@H]1[C@@H](O)CC[C@@H]1n1c(=O)c(C(F)F)cc2cnc(NC3CCN(S(C)(=O)=O)CC3)nc21 (single isomer, unassigned) [Example 205, (+)-6-(difluoromethyl)-8-[(1 R*,2S*,3R*)-3-hydroxy-2-methylcyclopentyl]-2-{[1-(methylsulfonyl)piperidin-4-yl]amino}pyrido[2,3-d]pyrimidin-7(8H)-one] | 1.27 nM | 5.22 nM
C[C@]1(O)CCC[C@@H]1n1c(=O)c(CC(N)=O)cc2cnc(NC3CCN(S(C)(=O)=O)CC3)nc21 (single isomer, unassigned) [Example 180, (+)-2-(8-[(1R*,2R*)-2-hydroxy-2-methylcyclopentyl]-2-{[1-(methylsulfonyl)piperidin-4-yl]amino}-7-oxo-7,8-dihydropyrido[2,3-d]pyrimidin-6-yl)acetamide] | 28.9 nM | 3.76 nM
Cc1cc2cnc(NC3CCN(S(=O)(=O)NC4CCOCC4)CC3)nc2n([C@H]2CCC[C@]2(C)O)c1=O (single isomer, unassigned) [Example 97, (+)-4-({8-[(1R*,2R*)-2-hydroxy-2-methylcyclopentyl]-6-methyl-7-oxo-7,8-dihydropyrido[2,3-d]pyrimidin-2-yl}amino)-N-(tetrahydro-2H-pyran-4-yl)piperidine-1-sulfonamide] | 11.8 nM | 2.47 nM
Cc1cc2cnc(NC3CCN(S(=O)(=O)C(F)(F)F)CC3)nc2n([C@@H]2CCC[C@@]2(C)O)c1=O (single isomer, unassigned) [Example 181, (−)-8-[(1R*,2R*)-2-hydroxy-2-methylcyclopentyl]-6-methyl-2-({1-[(trifluoromethyl)sulfonyl]piperidin-4-yl}amino)pyrido[2,3-d]pyrimidin-7(8H)-one] | 0.85 nM | 1.32 nM
CNS(=O)(=O)N1CCC(Nc2ncc3cc(C)c(=O)n([C@@H]4CCC[C@@H]4C)c3n2)CC1 [Example 42, N-methyl-4-({6-methyl-8-[(1R,2S)-2-methylcyclopentyl]-7-oxo-7,8-dihydropyrido[2,3-d]pyrimidin-2-yl}amino)piperidine-1-sulfonamide] | 46.1 nM | 155 nM
Cc1cc2cnc(NC3CCN(S(C)(=O)=O)CC3)nc2n([C@@H]2CCC[C@@H]2C)c1=O [Example 37, 6-methyl-8-[(1R,2S)-2-methylcyclopentyl]-2-{[1-(methylsulfonyl)piperidin-4-yl]amino}pyrido[2,3-d]pyrimidin-7(8H)-one] | 0.06 nM | 0.06 nM
Cc1cc2cnc(NC3CCN(S(C)(=O)=O)CC3)nc2n([C@H]2C[C@@H](O)C[C@H]2C)c1=O (single isomer, unassigned) [Example 200, (+)-8-[(1R*,2S*,4R*)-4-hydroxy-2-methylcyclopentyl]-6-methyl-2-{[1-(methylsulfonyl)piperidin-4-yl]amino}pyrido[2,3-d]pyrimidin-7(8H)-one] | 4.72 nM | 9.51 nM
CNS(=O)(=O)N1CCC(Nc2ncc3cc(C)c(=O)n(C4CCCC4)c3n2)CC1 [Example 23, 4-[(8-cyclopentyl-6-methyl-7-oxo-7,8-dihydropyrido[2,3-d]pyrimidin-2-yl)amino]-N-methylpiperidine-1-sulfonamide] | 0.62 nM | 0.78 nM
CCS(=O)(=O)N1CCC(Nc2ncc3cc(C)c(=O)n([C@@H]4CCC[C@@]4(C)O)c3n2)CC1 (single isomer, unassigned) [Example 110, (−)-2-{[1-(ethylsulfonyl)piperidin-4-yl]amino}-8-[(1R*,2R*)-2-hydroxy-2-methylcyclopentyl]-6-methylpyrido[2,3-d]pyrimidin-7(8H)-one] | 0.28 nM | 0.1 nM
Cc1cc2cnc(NC3CCN(S(N)(=O)=O)CC3)nc2n(C2CCCC2)c1=O [Example 25, 4-[(8-cyclopentyl-6-methyl-7-oxo-7,8-dihydropyrido[2,3-d]pyrimidin-2-yl)amino]piperidine-1-sulfonamide] | 0.23 nM | 0.22 nM
Cc1cc2cnc(NC3CCN(S(C)(=O)=O)CC3)nc2n([C@H]2CC[C@H](O)C2)c1=O (single isomer, unassigned) [Example 168, (+)-8-[(1R*,3R*)-3-hydroxycyclopentyl]-6-methyl-2-{[1-(methylsulfonyl)piperidin-4-yl]amino}pyrido[2,3-d]pyrimidin-7(8H)-one] | 1.34 nM | 1.31 nM
CNS(=O)(=O)N1CCC(Nc2ncc3cc(Cl)c(=O)n([C@H]4CCC[C@]4(C)O)c3n2)CC1 (single isomer, unassigned) [Example 127, (+)-4-({6-chloro-8-[(1R*,2R*)-2-hydroxy-2-methylcyclopentyl]-7-oxo-7,8-dihydropyrido[2,3-d]pyrimidin-2-yl}amino)-N-methylpiperidine-1-sulfonamide] | 12.6 nM | 3.46 nM
C[C@]1(O)CCC[C@@H]1n1c(=O)c(CCO)cc2cnc(NC3CCN(S(C)(=O)=O)CC3)nc21 (single isomer, unassigned) [Example 123, (+)-6-(2-hydroxyethyl)-8-[(1R*,2R*)-2-hydroxy-2-methylcyclopentyl]-2-{[1-(methylsulfonyl)piperidin-4-yl]amino}pyrido[2,3-d]pyrimidin-7(8H)-one] | 6.14 nM | 0.76 nM
Cc1cc2cnc(NC3CCN(S(=O)(=O)CC4CC4)CC3)nc2n([C@H]2CCC[C@]2(C)O)c1=O (single isomer, unassigned) [Example 117, (+)-2-({1-[(cyclopropylmethyl)sulfonyl]piperidin-4-yl}amino)-8-[(1R*,2R*)-2-hydroxy-2-methylcyclopentyl]-6-methylpyrido[2,3-d]pyrimidin-7(8H)-one] | 2.46 nM | 1.74 nM
C[C@@H]1[C@H](O)CCC[C@H]1n1c(=O)ccc2cnc(NC3CCN(S(C)(=O)=O)CC3)nc21 (single isomer, unassigned) [Example 221, (−)-8-[(1S*,2R*,3S*)-3-hydroxy-2-methylcyclohexyl]-2-{[1-(methylsulfonyl)piperidin-4-yl]amino}pyrido[2,3-d]pyrimidin-7(8H)-one] | 0.36 nM | 0.13 nM
CS(=O)(=O)N1CCC(Nc2ncc3cc(C(F)(F)C(=O)O)c(=O)n(C4CCCC4)c3n2)CC1 [Example 31, (8-cyclopentyl-2-{[1-(methylsulfonyl)piperidin-4-yl]amino}-7-oxo-7,8-dihydropyrido[2,3-d]pyrimidin-6-yl)(difluoro)acetic acid] | 0.87 nM | 2.43 nM
CNS(=O)(=O)N1CCC(Nc2ncc3cc(CCO)c(=O)n(C4CCCC4)c3n2)CC1 [Example 146, 4-{[8-cyclopentyl-6-(2-hydroxyethyl)-7-oxo-7,8-dihydropyrido[2,3-d]pyrimidin-2-yl]amino}-N-methylpiperidine-1-sulfonamide] | 1.1 nM | 1.51 nM
CS(=O)(=O)N1CCC(Nc2ncc3cc(CCO)c(=O)n(C4CCCCCC4)c3n2)CC1 [Example 165, 8-cycloheptyl-6-(2-hydroxyethyl)-2-{[1-(methylsulfonyl)piperidin-4-yl]amino}-pyrido[2,3-d]pyrimidin-7(8H)-one] | 2.65 nM | 1.51 nM
Cn1cnc(S(=O)(=O)N2CCC(Nc3ncc4ccc(=O)n([C@@H]5CCC[C@@]5(C)O)c4n3)CC2)c1 (single isomer, unassigned) [Example 84, (−)-8-[(1R*,2R*)-2-hydroxy-2-methylcyclopentyl]-2-({1-[(1-methyl-1H-imidazol-4-yl)sulfonyl]piperidin-4-yl}amino)pyrido[2,3-d]pyrimidin-7(8H)-one] | 0.92 nM | 0.08 nM
